In patent US12428394B2, “2,4-disubstituted pyrimidine derivative, preparation method therefor and use thereof” (CHENGDU ZENITAR BIOMEDICAL TECHNOLOGY CO., LTD., priority 2019, dated 2025):

Assays:
JAK1 = biological target: T1, JAK1 (Homo sapiens, UniProt P23458); experiment: In vitro kinase activity experiment, JAK1; assay type: biochemical
T1 construct: purchased Eurofins
Procedure: Buffer solution ([…], pH 7.0, 0.2 mm EDTA, 10 mM mncl2), kinase to be tested, substrate of kinase to be tested, 10 mM magnesium acetate and γ33P-ATP solution, and compounds with different concentrations were added to a reaction tube in turn, then MgATP was added to initiate the enzyme reaction process, and incubated at room temperature for 40 min. Then, the reaction was terminated with 5 μl of […], and 10 μl of the reaction solution was titrated onto the Filtermat A membrane, washed with 75 mM phosphate solution for three times, each time for 5 min., and then washed with methanol once. Finally, the Filtermat A membrane was dried and the scintillation count was carried out.

[1] = tested on: Ba/F3-EpoR-JAK2V617F cells; experiment: Ba/F3-EpoR-JAK2V617F-driven malignant tumor mouse model; assay type: in vivo, Babl/c-nude mice; conditions: oral twice a day
Procedure: Babl/c-nude mice (Beijing Huafukang Biotechnology Co., Ltd.) were received and acclimated to the environment until these mice were normalized in diet and activity, and the modeling began. Ba/F3-EpoR-JAK2V617F cells (State Key Laboratory of Biotherapy, Sichuan University) were routinely incubated and grew to 80% fusion degree. Then the cells were centrifuged at 1000 rpm for 3 min., collected, resuspended by PBS and counted by a cell counter; while the survival rate of the cells was calculated. Only when the proportion of living cells exceeds 90%, can the cells be used in the experiment, with the cell concentration adjusted to 1×10^7 cells/mL. After the cells were collected, the cell suspension was pre-cooled on ice. Each mouse was inoculated as per 1.0×10^6, and batch induction modeling was carried out.

T1 sequence (P23458 whole entry): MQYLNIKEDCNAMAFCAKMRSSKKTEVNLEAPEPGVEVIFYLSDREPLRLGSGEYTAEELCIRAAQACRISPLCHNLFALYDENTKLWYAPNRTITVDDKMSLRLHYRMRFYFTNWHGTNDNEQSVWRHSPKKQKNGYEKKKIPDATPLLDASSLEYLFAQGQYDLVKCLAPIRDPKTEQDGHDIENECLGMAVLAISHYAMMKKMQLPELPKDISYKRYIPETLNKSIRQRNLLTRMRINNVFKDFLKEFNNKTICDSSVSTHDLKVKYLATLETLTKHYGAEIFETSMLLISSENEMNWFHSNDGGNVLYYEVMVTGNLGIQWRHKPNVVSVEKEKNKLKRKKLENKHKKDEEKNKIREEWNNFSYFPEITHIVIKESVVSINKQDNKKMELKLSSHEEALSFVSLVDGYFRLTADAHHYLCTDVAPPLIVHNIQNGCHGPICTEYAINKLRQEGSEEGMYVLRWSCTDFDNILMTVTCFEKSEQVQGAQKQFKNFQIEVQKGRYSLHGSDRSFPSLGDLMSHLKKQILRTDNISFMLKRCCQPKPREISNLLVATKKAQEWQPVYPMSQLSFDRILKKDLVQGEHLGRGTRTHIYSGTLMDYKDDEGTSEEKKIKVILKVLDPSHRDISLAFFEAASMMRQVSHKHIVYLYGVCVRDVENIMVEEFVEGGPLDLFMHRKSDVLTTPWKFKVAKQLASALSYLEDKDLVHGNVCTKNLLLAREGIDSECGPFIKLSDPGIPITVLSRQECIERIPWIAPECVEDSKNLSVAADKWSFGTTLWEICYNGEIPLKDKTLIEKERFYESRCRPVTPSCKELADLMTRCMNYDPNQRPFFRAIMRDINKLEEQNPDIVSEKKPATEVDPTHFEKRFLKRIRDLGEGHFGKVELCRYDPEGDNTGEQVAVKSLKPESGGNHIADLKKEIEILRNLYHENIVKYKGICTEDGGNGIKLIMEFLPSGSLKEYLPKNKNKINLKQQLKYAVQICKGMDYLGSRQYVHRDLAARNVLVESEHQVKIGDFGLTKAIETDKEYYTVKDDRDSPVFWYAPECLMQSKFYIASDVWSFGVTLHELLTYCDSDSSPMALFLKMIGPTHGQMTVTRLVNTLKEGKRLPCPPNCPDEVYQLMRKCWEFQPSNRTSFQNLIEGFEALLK

Cc1cnc(Nc2ccc(N3CCC(N(C)CCO)CC3)c(F)c2)nc1-c1cnn(C(C)C)c1 [CLJ-44, 5-methyl-N-(3-fluoro-4-(4-N-hydroxyethyl-4-N-methylaminopiperidine-1-yl)phenyl)-4-(1-isopropyl-1H-pyrazole-4-yl) pyrimidine-2-amine]
IC50 (JAK1): 37 nM | inhibition of spleen growth ([1]; 7.5 mg/Kg): 18.74% | inhibition of spleen growth ([1]; 15 mg/Kg): 35.67% | inhibition of spleen growth ([1]; 30 mg/Kg): 79.79% | inhibition of spleen growth ([1]; 45 mg/Kg): 101.08% | spleen weight ([1]; 45 mg/Kg): restored to the weight of a normal mouse
